From patent US7056940B2, “Insecticidal 3-(2,6-disubstituted phenyl)-5-[5-arylthien-2-yl]-1,2,4-triazoles” (Dow AgroSciences LLC, priority 2001, dated 2006)

Tests used:
Type in all cases: in vivo
[1] = test system: Cabbage Looper (Trichoplusia ni); assay: Insecticidal test for cabbage looper, treated cabbage leaf disc; design: key: A: 90–100; B: 80–89; C: 70–79; D: 60–69; E: 50–59; F: less than 50; G: Inactive; settings: cabbage leaf-dip, 2nd instar larvae, 5 days
Description: (§1) The compounds are useful for reducing populations of insects and mites and are useful in a method of inhibiting an insect or mite population which comprises applying to a locus of the insect or mite an effective insect- or mite-inactivating amount of a compound of formula (1). The “locus” of insects or mites is a term used herein to refer to the environment in which the insects or mites live or where their eggs are present, including the air surrounding them, the food they eat, or objects which they contact. For example, insects or mites which eat or contact edible or ornamental plants can be controlled by applying the active compound to plant parts such as the seed, seedling, or cutting which is planted, the leaves, stems, fruits, grain, or roots, or to the soil in which the roots are growing. It is contemplated that the compounds might also be useful to protect textiles, paper, stored grain, seeds, domesticated animals, buildings or human beings by applying an active compound to or near such objects. The term “inhibiting an insect or mite” refers to a decrease in the numbers of living insects or mites, or a decrease in the number of viable insect or mite eggs. The extent of reduction accomplished by a compound depends, of course, upon the application rate of the compound, the particular compound used, and the target insect or mite species. At least an inactivating amount should be used. The terms “insect-inactivating amount” and “mite-inactivating amount” are used to describe the amount, which is sufficient to cause a measurable reduction in the treated insect or mite population. Generally an amount in the range from about 1 to about 1000 ppm by weight active compound is used. For example, insects and mites which can be inhibited include, but are not limited to: • Lepidoptera—Heliothis spp., Helicoverpa spp., Spodoptera spp., Mythimna unipuncta, Agrotis ipsilon, Earias spp., Euxoa auxiliaris, Trichoplusia ni, Anticarsia gemmatalis, Rachiplusia nu, Plutella xylostella, Chilo spp., Scirpophaga incertulas, Sesamia inferens, Cnaphalocrocis medinalis, Ostrinia nubilalis, Cydia pomonella, Carposina niponensis, Adoxophyes orana, Archips argyrospilus, Pandemis heparana, Epinotia aporema, Eupoecilia ambiguella, Lobesia botrana, Polychrosis viteana, Pectinophora gossypiella, Pieris rapae, Phyllonorycter spp., Leucoptera malifoliella, Phyllocnisitis citrella • Coleoptera—Diabrotica spp., Leptinotarsa decemlineata, Oulema oryzae, Anthonomus grandis, Lissorhoptrus oryzophilus, Agriotes spp., Melanotus communis, Popillia japonica, Cyclocephala spp., Tribolium spp. • Homoptera—Aphis spp., Myzus persicae, Rhopalosiphum spp., Dysaphis plantaginea, Toxoptera spp., Macrosiphum euphorbiae, Aulacorthum solani, Sitobion avenae, Metopolophium dirhodum, Schizaphis graminum, Brachycolus noxius, Nephotettix spp., Nilaparvata lugens, Sogatella furcifera, Laodelphax striatellus, Bemisia tabaci, Trialeurodes vaporariorum, Aleurodes proletella, Aleurothrixus floccosus, Quadraspidiotus perniciosus, Unaspis yanonensis, Ceroplastes rubens, Aonidiella aurantii • Hemiptera—Lygus spp., Eurygaster maura, Nezara viridula, Piezodorus guildingi, Leptocorisa varicornis • Thysanoptera—Frankliniella occidentalis, Thrips spp., Scirtothrips dorsalis • Isoptera—Reticulitermes flavipes, Coptotermes formosanus • Orthoptera—Blattella germanica, Blatta orientalis, Gryllotalpa spp. • Diptera—Liriomyza spp., Musca domestica, Aedes spp., Culex spp., Anopheles spp. • Hymenoptera—Iridomyrmex humilis, Solenopsis spp., Monomorium pharaonis, Atta spp., Pogonomyrmex spp., Camponotus spp. • Siphonaptera—Ctenophalides spp., Pulex irritans • Acarina—Tetranychus spp., Panonychus spp., Eotetranychus carpini, Phyllocoptruta oleivora, Aculus pelekassi, Brevipalpus phoenicis, Boophilus spp., Dermacentor variabilis, Rhipicephalus sanguineus, Amblyomma americanum, Ixodes spp., Notoedres cati, Sarcoptes scabiei, Dermatophagoides spp. […]

[2] = test system: Sweetpotato Whitefly (Bemisia tabacia); assay: Insecticidal test for sweetpotato whitefly, spray on cotton plants; design: key: A: 90–100; B: 80–89; C: 70–79; D: 60–69; E: 50–59; F: less than 50; G: Inactive; settings: 200 ppm spray, 13 days, large nymphs
Protocol: Insecticidal Test for Sweetpotato Whitefly (Bemisia tabacia)
Four mg of each test compound was dissolved by adding 4 mL of a 90:10 acetone:ethanol solvent mixture to the vial containing the sample compound. This solution was added to 16 mL of water containing 0.05% Tween 20 surfactant to produce 20 mL of an 200 ppm spray solution.
Five-week-old cotton plants reared in a greenhouse were stripped of all foliage except for the two uppermost true leaves that were greater than 5 cm in diameter. These plants were then placed into a laboratory colony of whiteflies for two days for oviposition by the colony females. All whiteflies were then removed from the test plants with pressurized air. The spray solution was then applied to the test plants with a hand-held syringe fitted with hollow cone nozzle. One mL spray solution was applied to each leaf top and bottom for a total of 4 mL per plant. Four replications of each test compound utilized a total of 16 mL spray solution. Plants were air dried and then placed in a holding chamber (28° C. and 60% RH) for 13 days. Compound efficacy was evaluated by counting, under an illuminated magnifying glass, the number of large nymphs (3rd–4th instar) per leaf.
Percent control based on reduction of large nymphs of a test compound compared to solution-only (no test compound) sprayed plants is reported in Tables 1–4.

[3] = test system: Two-spotted Spider Mite (Tetranychus urticae); assay: Insecticidal test for two-spotted spider mite, ovicide method; settings: cotton leaf discs, 6 days
Protocol: Insecticidal Test for Two-spotted Spider Mite (Tetranychus urticae)
Ten adult female two-spotted spider mites were placed on eight 2.2 cm leaf discs of cotton leaf, allowed to oviposit over 24 hours, and thereafter removed. […] Discs were placed on an agar substrate and held at 24° C. and 90% RH for 6 days.

[4] = test system: Beet Armyworm (Spodoptera exigua); assay: Insecticidal test for beet armyworm, treated lepidopteran diet; design: key: A: 90–100; B: 80–89; C: 70–79; D: 60–69; E: 50–59; F: less than 50; G: Inactive; settings: on diet surface, second-instar larvae, 5 days
Description: as §1

[5] = test system: Tobacco Budworm (Heliothis virescens); assay: Insecticidal test for tobacco budworm, treated cotton cotyledon leaf disc; design: key: A: 90–100; B: 80–89; C: 70–79; D: 60–69; E: 50–59; F: less than 50; G: Inactive; settings: cotton cotyledon leaf-dip, 2nd instar larvae, 5 days
Description: as §1

[6] = test system: Cotton Aphid (Aphis gossypii); assay: Insecticidal test for cotton aphid, spray on infested squash cotyledons; settings: 50 ppm spray, 3 days
Protocol: Insecticidal Test for Cotton Aphid (Aphis gossypii)
To prepare spray solutions, 1 mg of each test compound was dissolved into 1 mL of a 90:10 acetone:ethanol solvent. This 1 mL of chemical solution was added to 19 mL of water containing 0.05% Tween 20 surfactant to produce a 50 ppm spray solution.
Squash cotyledons were infested with cotton aphid (all life stages) 16–20 hours prior to application of spray solution. The solution was sprayed on both sides of each infested squash cotyledon (0.5 mL×2 each side) with a sweeping action until runoff. The plants were allowed to air dry and held for 3 days in a controlled room at 26° C. and 40% RH after which time the test was graded. Grading was by actual count using a dissecting microscope and comparison of test counts to the untreated check. Results are given in Tables 1–4 as percent control based on population reduction versus the untreated.

Structure (SMILES)	CL: activity at 400 ppm against cabbage looper (% control rating) [1]	WF: activity at 200 ppm against whitefly (% control rating) [2]	SM: activity against two-spotted spider mite (% control rating) [3]	BAW: activity at 400 ppm against beet armyworm (% control rating) [4]	TBW: activity at 400 ppm against tobacco budworm (% control rating) [5]	CA: activity at 50 ppm against cotton aphid (% control rating) [6]
Cc1c(-c2nc(-c3c(F)cccc3Cl)nn2C)csc1-c1cccc(OC(F)(F)F)c1	A (90–100)	B (80–89)	F (less than 50)	G	G	A (90–100)
Cc1cc(-c2cccc(C(F)(F)F)c2F)sc1-c1nc(-c2c(F)cccc2Cl)nn1C	A (90–100)	G	A (90–100)	A (90–100)	D (60–69)	D (60–69)
Cc1c(-c2nc(-c3c(F)cccc3Cl)nn2C)csc1-c1cccc(C(F)(F)F)c1F	A (90–100)	E (50–59)	F (less than 50)	G	G	A (90–100)
Cn1nc(-c2c(F)cccc2Cl)nc1-c1sc(-c2ccc(OC(F)(F)C(F)Br)cc2)cc1Cl (stereo not drawn)	A (90–100)	G	C (70–79)	A (90–100)	A (90–100)	E (50–59)
Cc1c(-c2nc(-c3c(F)cccc3Cl)nn2C)csc1-c1ccc(F)cc1	D (60–69)	F (less than 50)	B (80–89)	G	F (less than 50)	B (80–89)
Cc1c(-c2nc(-c3c(F)cccc3Cl)nn2C)csc1-c1ccc(OC(F)(F)C(F)Br)cc1 (stereo not drawn)	A (90–100)	A (90–100)	A (90–100)	A (90–100)	A (90–100)	A (90–100)
Cc1c(-c2nc(-c3c(F)cccc3Cl)nn2C)csc1-c1ccc(F)cc1F [drawing 233]	A (90–100)	F (less than 50)	B (80–89)	G	G	B (80–89)
Cc1cc(-c2ccc(OC(F)(F)C(F)C(F)(F)F)cc2)sc1-c1nc(-c2c(F)cccc2Cl)nn1C (stereo not drawn)	A (90–100)	F (less than 50)	A (90–100)	A (90–100)	A (90–100)	B (80–89)
Cc1c(-c2nc(-c3c(F)cccc3Cl)nn2C)csc1-c1ccc(Cl)c(F)c1	A (90–100)	G	A (90–100)	F (less than 50)	G	A (90–100)
Cc1sc(-c2cccc(OC(F)(F)F)c2)cc1-c1nc(-c2c(F)cccc2Cl)nn1C	A (90–100)	F (less than 50)	A (90–100)	G	G	A (90–100)
Cc1c(-c2nc(-c3c(F)cccc3Cl)nn2C)csc1-c1cc(C(F)(F)F)ccc1F	A (90–100)	F (less than 50)	F (less than 50)	G	G	B (80–89)
COCCOc1cccc(-c2cc(C)c(-c3nc(-c4c(F)cccc4Cl)nn3C)s2)c1	G	G	C (70–79)	F (less than 50)	F (less than 50)	B (80–89)
Cc1c(-c2nc(-c3c(F)cccc3Cl)nn2C)csc1-c1ccc(OC2CCCCO2)cc1 (stereo not drawn)	F (less than 50)	F (less than 50)	F (less than 50)	A (90–100)	F (less than 50)	B (80–89)
